Measured values: patent US20110027185A1, “Methods of Screening for Anti-Angiogenic Compounds” (priority 2007, published 2011)

Experiments:
HUVEC [1] = assay: HUVEC growth inhibition assay (NCI); assay type: cell-based, human; conditions: 72 h, crystal violet
Protocol: Angiogenesis assays were provided by the NCI, details of the assay protocols are given below. In each assays TNP-470 and paclitaxel (Taxol®) were used as reference compounds. HUVEC (1.5×10^3) were plated in a 96-well plate in 100 μL of EBM-2 (Clonetic #CC3162). […] On day 0, one plate was stained with 0.5% crystal violet in 20% methanol for 10 minutes, rinsed with water, and air-dried. The remaining plates were incubated for 72 h at 37° C. After 72 h, plates were stained with 0.5% crystal violet in 20% methanol, rinsed with water and air-dried. The stain was eluted with 1:1 solution of ethanol:0.1 M sodium citrate (including day 0 plate), and absorbance was measured at 540 nm with an ELISA reader (Dynatech Laboratories). Day 0 absorbance was subtracted from the 72 h plates and data was plotted as percentage of control proliferation (vehicle treated cells).

HUVEC [2] = assay: HUVEC cord formation assay on matrigel (NCI); assay type: cell-based, human; conditions: 24 h
Protocol: Angiogenesis assays were provided by the NCI, details of the assay protocols are given below. In each assays TNP-470 and paclitaxel (Taxol®) were used as reference compounds. Matrigel (60 μL of 10 mg/mL; Collaborative Lab #35423) was placed in each well of an ice-cold 96-well plate. The plate was allowed to sit at room temperature for 15 minutes then it was incubated at 37° C. for 30 minutes to permit the matrigel to polymerize. In the mean time, HUVEC were prepared in EGM-2 (Clonetic #CC3162) at a concentration of 2×10^5 cells/mL. […] The cells (500 μL) and the drug at 2 times concentration (500 μL) were mixed and 200 μL of this suspension was placed in duplicate on the polymerized matrigel. After 24 h incubation, triplicate pictures were taken for each concentration using a Bioquant Image Analysis system. Drug effect (IC50) is assessed compared to untreated controls by measuring the length of cords formed and number of junctions.

HUVEC [3] = assay: HUVEC cell migration (chemotaxis) assay, Boyden chamber (NCI); assay type: cell-based, human; conditions: 5 h
Protocol: Angiogenesis assays were provided by the NCI, details of the assay protocols are given below. In each assays TNP-470 and paclitaxel (Taxol®) were used as reference compounds. Migration was assessed using the 48-well Boyden chamber and 8 μm pore size collagen-coated (10 μg/mL rat tail collagen; Collaborative Laboratories) polycarbonate filters (Osmonics, Inc.). The bottom chamber wells received 27-29 μL of DMEM medium alone (baseline) or medium containing chemo-attractant (bFGF, VEGF or Swiss 3T3 cell conditioned medium). The top chambers received 45 μL of HUVEC cell suspension (1×10^6 cells/mL) prepared in DMEM+1% BSA with or without test compound. After 5 h incubation at 37° C., the membrane was rinsed in PBS, fixed and stained in Diff-Quick solutions. The filter was placed on a glass slide with the migrated cells facing down and cells on top were removed using a Kimwipe. The testing was performed in 4-6 replicates and five fields were counted from each well. Negative, unstimulated, control values were subtracted from stimulated control and drug treated values and data was plotted as mean migrated cell±S.D. The IC50 was calculated from the plotted data.

[4] = test system: endothelial cell proliferation and endothelial capillary formation; conditions: cited from earlier work
[5] = test system: mouse colon adenocarcinoma cells; conditions: subtoxic dose, colon 38 spleen liver model; cited from earlier work
[6] = test system: Lewis lung adenocarcinoma; conditions: rats, intraperitoneal and per os, subtoxic doses; cited from earlier work
[7] = test system: VEGFxxx and VEGFxxxb expression in RPE cells; assay: VEGF isoform ELISA of media of treated RPE cells; assay type: cell-based; conditions: 0.5 μM or 5 μM, 72 hours
Protocol: Media was sampled after 72 hours treatment, and assessed for total VEGF and VEGFxxxb expression (see Bates et al., 2002, Woolard et al., 2004 and Varey et al., 2008 for methods).

[8] = test system: VEGFxxxb and total VEGF in RPE cells; assay: Dose dependent effect on VEGF in RPE cell lysate (ELISA, Western blot); assay type: cell-based; conditions: 24 hours
Protocol: FIG. 7: Comparison of the effect of compound 5 on the VEGF levels by ELISA. RPE cells were treated with increasing concentrations of compound 5 for 24 hours and the VEGFxxxb and total VEGF concentrations measured by ELISA. **p<0.05, Dunnett's, **p<0.01, 95% confidence interval, alpha=0.05, N=3.
FIG. 8: (A) Western Blot analysis of the cell lysate for expression of VEGF165b. Primary antibody: 56/1 mouse anti-h antibody (200 μg/ml, 1:250 dilution) and secondary antibody: Goat anti-mouse antibody (1:7000 dilution).
RPE cell lysate was extracted after 24 hours incubation with increasing concentrations of compound 5. VEGFxxxb and VEGFxxx levels were then analysed by ELISA (see Bates et al., 2002, Woolard et al., 2004 and Varey et al., 2008 for methods). These levels were compared to total cell protein levels.

[9] = test system: retinal neovascularisation; assay: Mouse Retinopathy of Prematurity (ROP) oxygen induced retinopathy model; assay type: in vivo; conditions: for neovascularisation compared with contralateral eye: day 17, p<0.01 paired t-test
Protocol: Evidence that compound 5, a borrelidin analogue which affects splicing of VEGF through FBP21, affects angiogenesis was gained from an in vivo mouse model, […] (ROP), which mimics some of the processes in Age-related Macular Degeneration and other eye diseases where neovascularisation is associated with disease progression.
Compound 5 was dosed at two concentrations, 0.5 μM and 5 μM, in a mouse Retinopathy of Prematurity (ROP) model (see Konopatskaya et al., 2006 for methods). Oxygen induced retinopathy was induced by placing the mice at 75% oxygen from day 7 to day 12 post birth and then removing them to normal room air. Mice were injected with either vehicle (0.02% DMSO in HBSS) or 0.5 μM or 5 μM compound 5 into one eye, and the other left uninjected (contralateral). At day 17 mice were killed, retinas removed and stained for endothelial cells with isolectin (FIG. 11).

FBP21 in RPE cells = assay: VEGFxxxb levels in RPE cells transfected with FBP21 construct; assay type: cell-based, human; conditions: pWV327 vs pOriGene-FBP21 control, 7 uM, 24 hours
Protocol: (§1) pOriGene-FBP21 (FIG. 9A, SEQ ID No. 5) was purchased from Origene. This construct contains the cDNA for the human FBP21 gene. Due to the presence in this contruct of non-essential DNA which would have disrupted the expression of FBP21, a three part ligation was carried out to remove this DNA. This generated pWV327 (FIG. 9B, SEQ ID No. 6).
(§2) Both RPE and HEK cells were transfected with either pOriGene-FBP21 (as a control, due to the lack of FBP21 expression) or pWV327 (for overexpression of FBP21), using standard techniques. These cell lines were then treated with compound 5 (7 uM) or untreated, and VEGFxxxb levels analysed after 24 hours. FIGS. 10A, B and C show the results of this analysis.

FBP21 in HEK cells = assay: VEGFxxxb levels in HEK cells transfected with FBP21 construct; assay type: cell-based, human; conditions: pWV327 vs pOriGene-FBP21 control, 7 uM, 24 hours
Protocol: as §1, §2

FBP21 = molecular target: T1, FBP21 (Homo sapiens, UniProt O75554); assay: Phage display biopanning with biotinylated bait, Human Colon Tumour Library; assay type: binding; conditions: SDS and E. coli elution
T1 construct: encode 99 amino acids in frame with the phage coat protein of which a segment of 83 residues share 100% homology with FBP21; purchased Novagen; host or cells: T7 phage amplified in E. coli BLT5403
T1 sequence (O75554 with tags, fused parts or gaps): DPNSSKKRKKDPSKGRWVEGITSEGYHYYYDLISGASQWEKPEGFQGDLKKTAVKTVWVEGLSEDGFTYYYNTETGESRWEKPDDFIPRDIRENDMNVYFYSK
Protocol: Streptavidin wells were incubated with 1 μM biotinylated probe at 4° C. overnight to prepare the wells for biopanning. After incubation, unbound biotinylated probe was removed from the well by washing with phosphate buffered saline (PBS). Wells were then blocked with blocking solution (3% skimmed milk in PBS) for at least one hour at room temperature. Blocked wells were then briefly washed with PBS and were ready for biopanning use. […] In the first round of biopanning, 0.15 mL of amplified phage library was added to an empty streptavidin coated well and incubated at room temperature for at least 1 hour. This step was included to deselect any phage displaying streptavidin binding proteins. After incubation, the phage were removed from the well and mixed with 50 μL 4× blocking solution (12% skimmed milk in PBS) and incubated at room temperature for at least one hour. 0.125 mL of blocked phage library was added to each pre-prepared biotinylated well and incubated at room temperature for at least one hour. […] After incubation, unbound phage were removed from the well with wash solution. The wash solution was varied depending on the round of biopanning. For first round of biopanning PBS1 was used. For subsequent rounds the stringency of the wash was increased by using sequentially PBS2, PBS3 and PBS4 (see Table I). […]

`CO[C@@H]1[C@H](OC(=O)NC(=O)CCl)CC[C@]2(CO2)[C@H]1[C@@]1(C)O[C@@H]1CC=C(C)C` [TNP470] showed an IC50 (HUVEC [1]; Homo sapiens) of 3.16 ± 0.82 nM, an IC50 (HUVEC [2]; Homo sapiens) of 1000 nM and an IC50 (HUVEC [3]; Homo sapiens) of 500 nM.
Compound `CC(=O)O[C@H]1C(=O)[C@@]2(C)[C@H]([C@H](OC(=O)c3ccccc3)[C@]3(O)C[C@H](OC(=O)[C@H](O)[C@@H](NC(=O)c4ccccc4)c4ccccc4)C(C)=C1C3(C)C)[C@]1(OC(C)=O)CO[C@@H]1C[C@@H]2O` [Taxol, paclitaxel] has an IC50 (HUVEC [1]; Homo sapiens) of 1.65 ± 0.12 nM, an IC50 (HUVEC [2]; Homo sapiens) of 50 nM and an IC50 (HUVEC [3]; Homo sapiens) of 100 nM.
For `CC1CC(C)CC(C)C(O)C(C#N)=CC=CCC(C2CCCC2C(=O)OCCc2ccccn2)OC(=O)CC(O)C(C)C1` (stereo not shown) [borrelidin-(2-pyridyl)-ethyl ester], the “selectivity index, capillary formation inhibitory activity versus cell proliferation with respect to borrelidin” value [4] is given as 7.5 fold.
In the case of `CC1CC(C)CC(C)C(O)CC(=O)OC(C2CCCC2C(=O)NCc2cccnc2)C(C#N)=CC=CCC(O)C(C)C1` (stereo not shown) [borrelidin-(3-picolylamide)], the “metastasis-forming ability of mouse colon adenocarcinoma cells transplanted into mouse spleen” value [5] is listed as “considerably decreased” and the increase of micrometastases [6] is listed as “inhibit very considerably”.
In the case of `C[C@@H]1C[C@H](C)C[C@H](C)[C@@H](O)CC(=O)O[C@H]([C@@H]2CCC[C@H]2C(=O)NCCN2CCOCC2)C/C=C/C=C(/C#N)[C@H](O)[C@@H](C)C1` [borrelidin-morpholinoethyl amide], the “selectivity index, capillary formation inhibitory activity versus cell proliferation with respect to borrelidin” value [4] is given as 6 fold.
In the case of `C[C@@H]1C[C@H](C)C[C@H](C)[C@@H](O)CC(=O)O[C@H]([C@@H]2CCC[C@H]2C(=O)OCCN2CCOCC2)C/C=C/C=C(/C#N)[C@H](O)[C@@H](C)C1` [borrelidin-morpholinoethyl ester], the “selectivity index, capillary formation inhibitory activity versus cell proliferation with respect to borrelidin” value [4] is listed as 60 fold.
With `CC1CC(C)CC(C)C(O)C(C#N)=CC=CCC(C2CCC2C(=O)O)OC(=O)CC(O)C(C)C1` (stereo not shown) [compound 5, 17-des-(cyclopentane-2′-carboxylic acid)-17-(cyclobutane-2′-carboxylic acid) borrelidin] the “VEGFxxx expression (ELISA)” value [7] was “significant downregulation”, the “VEGFxxxb expression (ELISA)” value [7] was “significant upregulation” and the “increase in VEGFxxxb levels versus control” value ([8]; 5 μM) was “statistically higher than those of the control”. For the same compound, the “total VEGF levels (ELISA)” value ([8]; increasing concentrations) was “dose dependent decrease”, the “percentage neovascularisation compared to vehicle and the 5 μM dose” value ([9]; 0.5 μM injected into one eye) was “significantly inhibited” and the “neovascularisation compared with contralateral eye” value ([9]; 0.5 μM injected into one eye) was “significant reduction”. The “neovascularisation compared with contralateral eye” value ([9]; 5 μM injected into one eye) was “significant reduction”, the “effect on VEGFxxxb levels after FBP21 transfection” value (FBP21 in RPE cells) was “FBP21 transfection reduced the effect” and the “effect on VEGFxxxb levels after FBP21 transfection” value (FBP21 in HEK cells) was “FBP21 transfection reduced the effect”.
For borrelidin-amide, the “selectivity index, capillary formation inhibitory activity versus cell proliferation with respect to borrelidin” value [4] is listed as 37 fold.
With pre-borrelidin the “identification of FBP21 fragment by biopanning (binding)” value (FBP21) was “never identified”, the IC50 (HUVEC [1]) was 2380 nM and the IC50 (HUVEC [2]) was greater than 30000 nM. It also gave an IC50 (HUVEC [3]) of 461 nM.
